Laboratory results reported in patent publication US6921531B2, “Administering bifunctional molecules containing a drug moiety and presenter protein ligand for therapy” (The Board of Trustees of the Leland Stanford Junior …, priority 1998, dated 2005).
Where two headings read alike, the source gives them in different places. Blank lines part the entries; values can stand above or below the molecule they belong to.

Legend:
[1] = molecular target: alkaline phosphatase (Eel Intestine) (Anguilla anguilla, UniProt A0A9D3RXU0); test: Alkaline phosphatase inhibition, Eel Intestine isoform; format: biochemical; settings: 100 μM human serum albumin vs none
Chain of alkaline phosphatase (Eel Intestine) (A0A9D3RXU0 entry or part of it): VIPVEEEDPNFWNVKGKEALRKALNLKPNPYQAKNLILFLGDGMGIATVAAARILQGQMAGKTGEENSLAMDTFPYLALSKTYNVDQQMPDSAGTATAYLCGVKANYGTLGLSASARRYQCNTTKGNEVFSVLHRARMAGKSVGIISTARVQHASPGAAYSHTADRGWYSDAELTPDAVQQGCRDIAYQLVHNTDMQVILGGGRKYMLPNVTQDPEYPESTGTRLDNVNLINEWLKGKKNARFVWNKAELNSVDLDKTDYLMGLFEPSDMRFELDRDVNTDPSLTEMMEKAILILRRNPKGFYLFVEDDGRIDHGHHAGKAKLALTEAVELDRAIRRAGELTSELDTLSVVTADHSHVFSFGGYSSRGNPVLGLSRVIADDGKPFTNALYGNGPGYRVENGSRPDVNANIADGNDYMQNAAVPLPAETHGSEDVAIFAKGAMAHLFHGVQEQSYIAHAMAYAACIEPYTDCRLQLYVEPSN
Protocol: (§1) Reactions were conducted in 200 mM diethanolamine buffer, pH 10, with methylumbeliferal phosphate as the substrate. The reaction was monitored by recording fluorescence of the hydrolysis product (excitation at 355 nm, fluorescence at […]), and the first 10% of the reaction was used to determine the rate of the reaction.
(§2) In the presence of 100 μM human serum albumin, compound 1 was seen to be a better inhibitor for four of the enzymes tested relative to the inhibition seen in the absence of albumin.

[2] = molecular target: alkaline phosphatase (Dog Intestine) (Canis lupus familiaris, UniProt A0A8C0LCK3); test: Alkaline phosphatase inhibition, Dog Intestine isoform; format: biochemical
Chain of alkaline phosphatase (Dog Intestine) (A0A8C0LCK3 23-522): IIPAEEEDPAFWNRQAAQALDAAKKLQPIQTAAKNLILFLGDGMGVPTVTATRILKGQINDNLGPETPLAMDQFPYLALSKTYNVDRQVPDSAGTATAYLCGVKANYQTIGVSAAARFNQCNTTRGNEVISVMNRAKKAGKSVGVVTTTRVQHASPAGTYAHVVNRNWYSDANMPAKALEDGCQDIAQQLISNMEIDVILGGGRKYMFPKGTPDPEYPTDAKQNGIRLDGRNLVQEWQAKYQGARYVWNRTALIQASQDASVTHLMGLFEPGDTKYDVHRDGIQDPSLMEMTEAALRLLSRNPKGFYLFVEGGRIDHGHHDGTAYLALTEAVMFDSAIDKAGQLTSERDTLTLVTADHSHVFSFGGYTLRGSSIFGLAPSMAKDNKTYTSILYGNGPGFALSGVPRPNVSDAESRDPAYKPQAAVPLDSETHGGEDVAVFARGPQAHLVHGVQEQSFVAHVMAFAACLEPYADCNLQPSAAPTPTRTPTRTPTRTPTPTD
Protocol: as §1, §2

[3] = molecular target: alkaline phosphatase (Bacteria) (Escherichia coli, UniProt P00634); test: Alkaline phosphatase inhibition, Bacteria isoform; format: biochemical
Chain of alkaline phosphatase (Bacteria) (P00634 22-471): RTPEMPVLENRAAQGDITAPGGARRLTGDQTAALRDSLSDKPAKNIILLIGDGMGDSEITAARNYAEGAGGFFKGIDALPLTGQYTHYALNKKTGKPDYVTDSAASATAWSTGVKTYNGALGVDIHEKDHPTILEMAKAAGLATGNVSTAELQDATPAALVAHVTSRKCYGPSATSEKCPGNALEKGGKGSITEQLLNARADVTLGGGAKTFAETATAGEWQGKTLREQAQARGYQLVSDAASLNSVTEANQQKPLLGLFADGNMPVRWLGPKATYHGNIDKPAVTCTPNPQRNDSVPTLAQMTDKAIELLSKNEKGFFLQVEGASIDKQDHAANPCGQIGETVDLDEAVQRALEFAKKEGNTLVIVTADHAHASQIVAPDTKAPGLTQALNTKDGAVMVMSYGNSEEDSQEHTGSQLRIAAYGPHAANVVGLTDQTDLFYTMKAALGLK
Protocol: as §1, §2

[4] = molecular target: alkaline phosphatase (Shrimp) (Pandalus borealis, UniProt Q9BHT8); test: Alkaline phosphatase inhibition, Shrimp isoform; format: biochemical; settings: Shrimp, pH 10
Chain of alkaline phosphatase (Shrimp) (Pandalus borealis, UniProt Q9BHT8) (Q9BHT8 entry or part of it): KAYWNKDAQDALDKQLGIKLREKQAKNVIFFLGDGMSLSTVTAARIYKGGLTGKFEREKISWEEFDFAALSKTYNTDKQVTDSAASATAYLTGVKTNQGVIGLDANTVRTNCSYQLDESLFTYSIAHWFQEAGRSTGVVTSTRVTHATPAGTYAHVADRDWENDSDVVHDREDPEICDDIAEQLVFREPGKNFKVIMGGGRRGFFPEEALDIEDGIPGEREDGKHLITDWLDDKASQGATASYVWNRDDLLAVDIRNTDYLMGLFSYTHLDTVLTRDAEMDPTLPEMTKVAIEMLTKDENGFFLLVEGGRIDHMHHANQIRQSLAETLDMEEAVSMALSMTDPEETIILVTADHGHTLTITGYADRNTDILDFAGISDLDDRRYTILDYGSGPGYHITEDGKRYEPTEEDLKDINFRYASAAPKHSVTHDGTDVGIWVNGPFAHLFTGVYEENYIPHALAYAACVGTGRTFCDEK
Protocol: as §1, §2

[5] = system: alkaline phosphatase (Shrimp); test: Alkaline phosphatase inhibition, Shrimp isoform; format: biochemical; settings: shrimp isoform; 100 μM human serum albumin vs none
Protocol: as §1, §2

[6] = molecular target: T1, alkaline phosphatase (Porcine Kidney) (Sus scrofa, UniProt A0A4X1W3F8); test: Alkaline phosphatase inhibition, Porcine Kidney isoform; format: biochemical
T1 sequence (A0A4X1W3F8 1-524): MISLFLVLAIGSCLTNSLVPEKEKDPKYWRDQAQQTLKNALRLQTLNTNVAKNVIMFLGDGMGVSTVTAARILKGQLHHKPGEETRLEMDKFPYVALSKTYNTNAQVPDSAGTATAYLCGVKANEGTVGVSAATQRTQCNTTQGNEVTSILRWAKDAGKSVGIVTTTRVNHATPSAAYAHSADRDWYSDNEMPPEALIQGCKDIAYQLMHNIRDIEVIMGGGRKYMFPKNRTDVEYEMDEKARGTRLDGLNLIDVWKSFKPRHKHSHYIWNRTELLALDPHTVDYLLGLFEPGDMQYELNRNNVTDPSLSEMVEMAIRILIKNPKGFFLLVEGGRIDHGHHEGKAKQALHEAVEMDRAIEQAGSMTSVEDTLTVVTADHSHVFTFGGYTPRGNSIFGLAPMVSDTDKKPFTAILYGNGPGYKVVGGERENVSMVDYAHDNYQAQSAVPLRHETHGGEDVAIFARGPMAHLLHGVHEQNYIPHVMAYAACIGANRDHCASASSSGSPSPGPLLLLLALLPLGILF
Protocol: as §1, §2

[7] = molecular target: alkaline phosphatase (Rabbit Intestine) (Oryctolagus cuniculus, UniProt G1SXE4); test: Alkaline phosphatase inhibition, Rabbit Intestine isoform; format: biochemical; settings: 100 μM human serum albumin vs none
Chain of alkaline phosphatase (Rabbit Intestine) (G1SXE4 25-504): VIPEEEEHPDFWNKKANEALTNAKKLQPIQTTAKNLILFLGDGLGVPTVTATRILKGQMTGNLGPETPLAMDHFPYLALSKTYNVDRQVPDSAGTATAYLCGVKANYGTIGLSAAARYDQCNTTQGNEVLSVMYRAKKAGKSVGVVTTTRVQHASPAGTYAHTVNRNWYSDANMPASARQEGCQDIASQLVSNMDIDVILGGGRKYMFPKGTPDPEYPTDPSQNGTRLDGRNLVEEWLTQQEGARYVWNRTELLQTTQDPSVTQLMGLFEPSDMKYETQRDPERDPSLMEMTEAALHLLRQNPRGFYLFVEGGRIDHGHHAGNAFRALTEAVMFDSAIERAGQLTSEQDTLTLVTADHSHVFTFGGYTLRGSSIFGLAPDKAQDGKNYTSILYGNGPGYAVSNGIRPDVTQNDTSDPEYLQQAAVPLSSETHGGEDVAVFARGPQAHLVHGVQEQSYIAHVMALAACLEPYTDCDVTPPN
Protocol: as §1, §2

[8] = molecular target: T2, alkaline phosphatase (Bovine Milk) (Bos taurus, UniProt P09487); test: Alkaline phosphatase inhibition, Bovine Milk isoform; format: biochemical
T2 construct: Bovine Milk; from tissue; host or cells: bovine milk
T2 sequence (P09487 18-499): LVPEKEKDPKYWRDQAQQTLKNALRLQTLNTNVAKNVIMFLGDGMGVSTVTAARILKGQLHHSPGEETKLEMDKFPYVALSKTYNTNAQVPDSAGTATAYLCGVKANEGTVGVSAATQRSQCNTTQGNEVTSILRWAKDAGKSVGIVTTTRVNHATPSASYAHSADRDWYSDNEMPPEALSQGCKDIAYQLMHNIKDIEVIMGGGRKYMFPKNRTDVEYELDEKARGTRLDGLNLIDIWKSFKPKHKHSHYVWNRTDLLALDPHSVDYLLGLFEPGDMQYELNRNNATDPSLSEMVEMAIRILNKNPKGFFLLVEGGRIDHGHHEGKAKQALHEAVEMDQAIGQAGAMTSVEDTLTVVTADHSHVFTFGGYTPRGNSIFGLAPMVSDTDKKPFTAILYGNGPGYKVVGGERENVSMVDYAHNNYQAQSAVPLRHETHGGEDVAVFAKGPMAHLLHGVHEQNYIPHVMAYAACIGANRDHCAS
Protocol: as §1, §2

[9] = molecular target: T3, alkaline phosphatase (Human Placenta) (Homo sapiens, UniProt P05187); test: Alkaline phosphatase inhibition, Human Placenta isoform; format: biochemical; settings: for IC50: Human Placenta, pH 10
T3 construct: roughly 2-fold for the eel intestine and human placenta isoforms of the enzyme; from tissue; host or cells: human placenta
T3 sequence (P05187 23-506): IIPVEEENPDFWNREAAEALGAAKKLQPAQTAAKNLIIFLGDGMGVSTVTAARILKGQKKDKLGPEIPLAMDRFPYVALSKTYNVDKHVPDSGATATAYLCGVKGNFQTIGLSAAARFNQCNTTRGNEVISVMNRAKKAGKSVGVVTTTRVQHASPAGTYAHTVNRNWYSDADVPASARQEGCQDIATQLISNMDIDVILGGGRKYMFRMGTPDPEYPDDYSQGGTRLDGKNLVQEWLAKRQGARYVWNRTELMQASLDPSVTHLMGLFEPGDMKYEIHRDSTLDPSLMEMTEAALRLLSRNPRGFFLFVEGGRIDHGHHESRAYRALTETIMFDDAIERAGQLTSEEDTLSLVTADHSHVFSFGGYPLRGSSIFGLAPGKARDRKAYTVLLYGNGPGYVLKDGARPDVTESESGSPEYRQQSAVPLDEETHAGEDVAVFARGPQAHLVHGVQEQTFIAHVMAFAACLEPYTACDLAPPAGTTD
Protocol: as §1, §2

PLC SH2 domain = test: Competition binding assay of radioactive PLC SH2 domain to pYEEI beads; settings: FKpYEEI 1.5 M plus FKBP12 2.0 M plus FK506 1.0-5.0 M
Excerpt: The pYEEI peptide was coupled to Affi-Gel 10 beads (Biorad) via its amino-group. The Fyn, Lck and PLC SH2 domains were expressed in bacteria as GST fusion proteins. The linker between the GST protein and the SH2 domain contained a thrombin cleavage site and a protein kinase A (PKA) phosphorylation site. The fusion protein on glutathione beads was radioactively labeled at the PKA phosphorylation site using PKA (Sigma). After extensive washing of the beads, the radioactive SH2 domain was released by cleavage with thrombin (Sigma). In a typical binding assay, 7.5 L of a 1:1 peptide bead slurry were incubated with the radioactive SH2 domain (200 nM) for 2 hours in 100 L of binding buffer (20 mM Tris pH7.2; 150 mM NaCl). In order to separate the radioactive protein bound to the beads, the binding reaction was transfered into a PCR tube (USA Scientific Plastic), whose bottom had been punctured with a 26gauge needle. The PCR tube was placed in a 0.5 mL Eppendorf tube which in turn was placed in a regular 1.5 mL Eppendorf tube. The tubes were spun for 1 second at maximal speed in an Eppendorf centrifuge resulting in the separation of the beads remaining in the PCR tube and the supernatant, which was collected in the 0.5 ml Eppendorf tube. The beads were resuspended in […] PBS and the radioactivity was counted in a liquid scintillation counter after addition of 3 ml scintillation fluid. The radioactivity remaining in the 100 L supernatant was counted in the same way. It was determined that under the conditions described 65% Fyn, 25% PLC and 15%Lck SH2 domain were bound to the beads. […]
The binary complex of FKpYEEI and FKBP 12 has the same affinity for the Fyn SH2 domain as free FKpYEEI (see FIG. 7). […] The binding reactions were rotated at room temperature for 2 hours, centrifuged and analysed as described above.
In this assay, in 100 L binding reactions, radioactively labeled PLC SH2 domain (400 nM) was incubated with 7.5 L of a 1:1 pYEEI bead slurry. […] The binding reactions were rotated at room temperature for 2 hours, centrifuged and analysed as described above. […]

Fyn SH2 domain = molecular target: T4, Fyn SH2 domain (Homo sapiens, UniProt P06241); test: Competition binding assay of radioactive Fyn SH2 domain to pYEEI beads
T4 construct: The Fyn, Lck and PLC SH2 domains were expressed in bacteria as GST fusion proteins; GST (cleaved yes); made in house; host or cells: bacteria
T4 sequence (P06241 149-246 limits assumed): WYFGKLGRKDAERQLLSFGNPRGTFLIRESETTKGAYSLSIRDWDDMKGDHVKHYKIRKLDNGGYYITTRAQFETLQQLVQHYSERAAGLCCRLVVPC
Excerpt: The pYEEI peptide was coupled to Affi-Gel 10 beads (Biorad) via its amino-group. The Fyn, Lck and PLC SH2 domains were expressed in bacteria as GST fusion proteins. The linker between the GST protein and the SH2 domain contained a thrombin cleavage site and a protein kinase A (PKA) phosphorylation site. The fusion protein on glutathione beads was radioactively labeled at the PKA phosphorylation site using PKA (Sigma). After extensive washing of the beads, the radioactive SH2 domain was released by cleavage with thrombin (Sigma). In a typical binding assay, 7.5 L of a 1:1 peptide bead slurry were incubated with the radioactive SH2 domain (200 nM) for 2 hours in 100 L of binding buffer (20 mM Tris pH7.2; 150 mM NaCl). In order to separate the radioactive protein bound to the beads, the binding reaction was transfered into a PCR tube (USA Scientific Plastic), whose bottom had been punctured with a 26gauge needle. The PCR tube was placed in a 0.5 mL Eppendorf tube which in turn was placed in a regular 1.5 mL Eppendorf tube. The tubes were spun for 1 second at maximal speed in an Eppendorf centrifuge resulting in the separation of the beads remaining in the PCR tube and the supernatant, which was collected in the 0.5 ml Eppendorf tube. The beads were resuspended in […] PBS and the radioactivity was counted in a liquid scintillation counter after addition of 3 ml scintillation fluid. The radioactivity remaining in the 100 L supernatant was counted in the same way. It was determined that under the conditions described 65% Fyn, 25% PLC and 15%Lck SH2 domain were bound to the beads. By increasing the amount of beads, up to 80% Fyn, 40% PLC and 25% Lck could be bound. These amounts reflect the active fraction of SH2 domains in the different protein preparations.
In order to determine the relative affinity of the SH2 domains for FKpYEEI or SLFpYEEI alone and FKpYEEI or SLFpYEEI bound to FKBP12 and FKBP52, the following competition assay was used. Radioactive SH2 domains were incubated with pYEEI peptide beads and FKpYEEI or SLFpYEEI in the presence or absence of the respective FKBP proteins. FKpYEEI and FKpYEEI/FKBP as well as SLFpYEEI and SLFpYEEI/FKBP compete for binding of the SH2 domains with the peptide beads. The higher the affinity of the FKpYEEI or SLFpYEEI ligand in the supernatant, the less SH2 domain is bound to the peptide beads (FIG. 3).
Using the competition binding assay described above, FKpYEEI was added to peptide beads and the Fyn SH2 domain in the presence of increasing concentrations of FKBP52 (FIG. 4). In this assay, in 100 L binding reactions, radioactively labeled Fyn SH2 domain (200 nM) was incubated with 7.5 L of a 1:1 pYEEI bead slurry. No FKpYEEI, 1.0 M FKpYEEI or 1.0 M FKpYEEI plus increasing concentrations of FKBP52 (0.25-4.0 M) were added. The binding reactions were rotated at room temperature for 2 hours. The supernatant was separated from the beads by spinning the binding reactions in punctured PCR tubes for 1 sec in an Eppendorf centrifuge at maximal speed. The beads were resuspended in 100 1 PBS and the radioactivity bound to the beads was counted in a liquid scintillation vial for 30 sec. The radioactivity bound to the beads in the presence of only the Fyn SH2 domain was plotted as 100% of maximal Fyn SH2 domain binding to pYEEI beads. The radioactivity bound in the presence of FKpYEEI and FKBP52 was calculated as the percentage of maximal Fyn SH2 domain binding. Every binding reaction was done in triplicate. The data points reflect the average of the three binding reactions. The error bars indicate the standard error.
In this assay, in 100 L binding reactions, radioactively labeled Fyn SH2 domain (200 nM) was incubated with 7.5 L of a 1:1 pYEEI bead slurry. […] The binding reactions were rotated at room temperature for 2 hours, centrifuged and analysed as described above. […]

alkaline phosphatase = settings: known inhibitor; cited from earlier work
albumin = albumin (Homo sapiens, UniProt P02768); settings: known ligand; read-out: IC50 as ligand for albumin; cited from earlier work
Chain of albumin (P02768 25-609): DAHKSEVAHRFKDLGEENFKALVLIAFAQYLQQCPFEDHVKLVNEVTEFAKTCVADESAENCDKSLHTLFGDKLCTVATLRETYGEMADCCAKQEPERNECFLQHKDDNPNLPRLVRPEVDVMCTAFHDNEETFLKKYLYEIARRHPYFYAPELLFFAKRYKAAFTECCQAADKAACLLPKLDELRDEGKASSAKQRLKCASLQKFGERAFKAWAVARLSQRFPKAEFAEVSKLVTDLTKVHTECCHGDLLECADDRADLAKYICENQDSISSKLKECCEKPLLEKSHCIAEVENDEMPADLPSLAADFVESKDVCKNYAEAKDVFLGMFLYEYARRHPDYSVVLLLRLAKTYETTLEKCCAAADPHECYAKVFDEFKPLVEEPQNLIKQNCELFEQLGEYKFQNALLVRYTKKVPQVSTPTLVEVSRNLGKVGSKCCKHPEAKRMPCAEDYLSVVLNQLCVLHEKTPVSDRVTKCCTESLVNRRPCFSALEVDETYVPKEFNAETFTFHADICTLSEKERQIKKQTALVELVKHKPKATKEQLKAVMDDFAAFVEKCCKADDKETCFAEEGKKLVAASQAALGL

[10] = 100 μM human serum albumin, pH 10, read-out: IC50 (100 μM albumin)
[11] = no albumin, pH 10, read-out: IC50 (no albumin)

Compound: CC(C)(S)C(N)C(=O)NCC(=O)Nc1ccc(C(=O)O)c(O)c1 (stereo not drawn) [Compound 1]
Decrease of IC50 in the presence of albumin [1]: roughly 2 fold
IC50 ([2]; read-out: IC50 (100 μM albumin), 100 μM human serum albumin, pH 10): 20 µM
IC50 ([2]; read-out: IC50 (no albumin), no albumin, pH 10): 20 µM
IC50 [3]: 50 µM
IC50 ([3]; read-out: IC50 (100 μM albumin), Bacteria, 100 μM human serum albumin, pH 10): 50 µM
IC50 ([4]; IC50 (100 μM albumin), 100 μM human serum albumin): 80 µM
IC50 ([4]; IC50 (no albumin), no albumin): 3000 µM
Decrease of IC50 in the presence of albumin [5]: roughly 12 fold
IC50 [6, 10]: 50 µM
IC50 [6, 11]: 50 µM
Decrease of IC50 in the presence of albumin [7]: roughly 12 fold
IC50 [8, 10]: 50 µM
IC50 [8, 11]: 50 µM
IC50 ([9]; 100 μM human serum albumin, read-out: IC50 (100 μM albumin)): 45 µM
IC50 ([9]; no albumin, read-out: IC50 (no albumin)): 300 µM
Decrease of IC50 in the presence of albumin ([9]; human placenta isoform, 100 μM human serum albumin vs none): roughly 2 fold

Effect of added FK506 on the FKBP12 effect (PLC SH2 domain): the affinity reduction is reversed
Effect of added FK506 on the FKBP12 effect (Fyn SH2 domain; SLFpYEEI 1.0 M plus FKBP12 2.0 M plus FK506 1.0-3.0 M): reverses the effect of reduced affinity
Compound: C=CC[C@@H]1/C=C(\C)C[C@H](C)C[C@H](OC)[C@H]2O[C@@](O)(C(=O)C(=O)N3CCCC[C@H]3C(=O)O[C@H](/C(C)=C/[C@@H]3CC[C@@H](O)[C@H](OC)C3)[C@H](C)[C@@H](O)CC1=O)[C@H](C)C[C@@H]2OC [FK506, reference compound]
Effect of added FK506 on the FKBP52 effect (Fyn SH2 domain; FKpYEEI 1.0 M plus FKBP52 2.0 M plus FK506 0.25-15.0 M): the affinity enhancing effect of FKBP52 is reversed

Compound: CC(C)(S)[C@@H](N)C(=O)O [Penicillamine]
IC 50 values for a wide variety of alkaline phosphatase isoforms (alkaline phosphatase): in the μM range

Compound: Nc1ccc(C(=O)O)c(O)c1 [para-amino salicylic acid]
IC50 (albumin): 5 µM
